# Reference: PubChem BioAssay AID1918946 (Molecular Pharmacology Branch, DTP, NCI, 2023)
# pIC50: −log10 of the molar value.
# Test system: 885512-296-R-J2-PDC complex spheroid viability
# Assay: Anticancer human tumor 885512-296-R-J2-PDC patient-derived breast carcinoma cell line growth inhibition
# Conditions: for pIC50: curve of first compound; for viability, T/C: stronger effect = lower value
# Summary of the method: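 Multicellular complex spheroids of tumor cells with human endothelial cells (HUVEC) and mesenchymal stem cells; the LSD1 inhibitor iadademstat was combined with standard-of-care or investigational agents. Top concentration at or near clinical Cmax, half-log dilutions; final DMSO ≤0.25%.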
# [1] = second compound 0.1 µM, first compound 0.00949 µM
# [2] = second compound 0.1 µM, first compound 0.03 µM
# [3] = second compound 0.1 µM, first compound 0.0949 µM
# [4] = second compound 0.1 µM, first compound 0.3 µM
# [5] = second compound 0.1 µM, first compound 0.949 µM
# [6] = second compound 0.1 µM, first compound 3 µM
# [7] = second compound 0.316 µM, first compound 0.00949 µM
# [8] = second compound 0.316 µM, first compound 0.03 µM
# [9] = second compound 0.316 µM, first compound 0.0949 µM
# [10] = second compound 0.316 µM, first compound 0.3 µM
# [11] = second compound 0.316 µM, first compound 0.949 µM
# [12] = second compound 0.316 µM, first compound 3 µM
# [13] = second compound 1 µM, first compound 0.00949 µM
# [14] = second compound 1 µM, first compound 0.03 µM
# [15] = second compound 1 µM, first compound 0.0949 µM
# [16] = second compound 1 µM, first compound 0.3 µM
# [17] = second compound 1 µM, first compound 0.949 µM
# [18] = second compound 1 µM, first compound 3 µM
# [19] = second compound 3.16 µM, first compound 0.00949 µM
# [20] = second compound 3.16 µM, first compound 0.03 µM
# [21] = second compound 3.16 µM, first compound 0.0949 µM
# [22] = second compound 3.16 µM, first compound 0.3 µM
# [23] = second compound 3.16 µM, first compound 0.949 µM
# [24] = second compound 3.16 µM, first compound 3 µM
# [25] = second compound 10 µM, first compound 0.00949 µM
# [26] = second compound 10 µM, first compound 0.03 µM
# [27] = second compound 10 µM, first compound 0.0949 µM
# [28] = second compound 10 µM, first compound 0.3 µM
# [29] = second compound 10 µM, first compound 0.949 µM
# [30] = second compound 10 µM, first compound 3 µM
# 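Further: spheroids exposed to agents for 7 days before viability read.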
smiles,measurement,setting,value
NS(=O)(=O)OCC1CC(n2ccc3c(NC4CCc5ccccc54)ncnc32)CC1O (stereo not given) + NC1CC1c1ccc(-c2cccc(O)c2)cc1,pIC50,second compound 0.1 µM,> 8.02
same,pIC50,second compound 0.316 µM,> 8.02
same,pIC50,second compound 1 µM,> 8.02
same,pIC50,second compound 3.16 µM,> 8.02
same,pIC50,second compound 10 µM,> 8.02
same,"viability, T/C",[1],15.9%
same,"viability, T/C",[2],6.61%
same,"viability, T/C",[3],2.38%
same,"viability, T/C",[4],1.74%
same,"viability, T/C",[5],1.42%
same,"viability, T/C",[6],1.17%
same,"viability, T/C",[7],13.4%
same,"viability, T/C",[8],5.58%
same,"viability, T/C",[9],2.27%
same,"viability, T/C",[10],1.48%
same,"viability, T/C",[11],1.54%
same,"viability, T/C",[12],1.19%
same,"viability, T/C",[13],11.8%
same,"viability, T/C",[14],5.8%
same,"viability, T/C",[15],2.84%
same,"viability, T/C",[16],1.53%
same,"viability, T/C",[17],1.65%
same,"viability, T/C",[18],1.49%
same,"viability, T/C",[19],10.9%
same,"viability, T/C",[20],4.37%
same,"viability, T/C",[21],2.28%
same,"viability, T/C",[22],1.46%
same,"viability, T/C",[23],1.66%
same,"viability, T/C",[24],1.1%
same,"viability, T/C",[25],8.81%
same,"viability, T/C",[26],4.76%
same,"viability, T/C",[27],1.87%
same,"viability, T/C",[28],1.89%
same,"viability, T/C",[29],0.97%
same,"viability, T/C",[30],0.66%
Nc1ccccc1NC(=O)c1ccc(CNC(=O)OCc2cccnc2)cc1 + NC1CC1c1ccc(-c2cccc(O)c2)cc1,pIC50,second compound 0.1 µM,7.32
same,pIC50,second compound 0.316 µM,7.30
same,pIC50,second compound 1 µM,7.38
same,pIC50,second compound 3.16 µM,7.37
same,pIC50,second compound 10 µM,7.62
same,"viability, T/C",[1],99.3%
same,"viability, T/C",[2],63.1%
same,"viability, T/C",[3],30.5%
same,"viability, T/C",[4],17.5%
same,"viability, T/C",[5],6.69%
same,"viability, T/C",[6],0.26%
same,"viability, T/C",[7],104%
same,"viability, T/C",[8],61.7%
same,"viability, T/C",[9],37.2%
same,"viability, T/C",[10],12.3%
same,"viability, T/C",[11],5.8%
same,"viability, T/C",[12],0.31%
same,"viability, T/C",[13],102%
same,"viability, T/C",[14],53.8%
same,"viability, T/C",[15],35.2%
same,"viability, T/C",[16],15%
same,"viability, T/C",[17],5.26%
same,"viability, T/C",[18],0.29%
same,"viability, T/C",[19],94.2%
same,"viability, T/C",[20],57.9%
same,"viability, T/C",[21],32.8%
same,"viability, T/C",[22],12.7%
same,"viability, T/C",[23],5.2%
same,"viability, T/C",[24],0.22%
same,"viability, T/C",[25],65.8%
same,"viability, T/C",[26],45.7%
same,"viability, T/C",[27],27.9%
same,"viability, T/C",[28],12.9%
same,"viability, T/C",[29],4.05%
same,"viability, T/C",[30],0.22%
O=C(C=Cc1cccc(S(=O)(=O)Nc2ccccc2)c1)NO + NC1CC1c1ccc(-c2cccc(O)c2)cc1,pIC50,second compound 0.1 µM,< 5.52
same,pIC50,second compound 0.316 µM,7.38
same,pIC50,second compound 1 µM,7.15
same,pIC50,second compound 3.16 µM,7.41
same,pIC50,second compound 10 µM,7.71
same,"viability, T/C",[1],104%
same,"viability, T/C",[2],66.5%
same,"viability, T/C",[3],26.4%
same,"viability, T/C",[4],15.9%
same,"viability, T/C",[5],2.01%
same,"viability, T/C",[6],136%
same,"viability, T/C",[7],106%
same,"viability, T/C",[8],61.2%
same,"viability, T/C",[9],23.3%
same,"viability, T/C",[10],12%
same,"viability, T/C",[11],2.58%
same,"viability, T/C",[12],116%
same,"viability, T/C",[13],96.3%
same,"viability, T/C",[14],73.6%
same,"viability, T/C",[15],26.6%
same,"viability, T/C",[16],13.9%
same,"viability, T/C",[17],1.94%
same,"viability, T/C",[18],127%
same,"viability, T/C",[19],92.1%
same,"viability, T/C",[20],53.6%
same,"viability, T/C",[21],26.4%
same,"viability, T/C",[22],14.4%
same,"viability, T/C",[23],1.95%
same,"viability, T/C",[24],109%
same,"viability, T/C",[25],62.8%
same,"viability, T/C",[26],42.4%
same,"viability, T/C",[27],16.9%
same,"viability, T/C",[28],8.77%
same,"viability, T/C",[29],0.61%
same,"viability, T/C",[30],82.6%
